Laboratory results reported in US11919886B2, “4,9-dioxo-4,9-dihydronaphtho[2,3-B]furan-3-carboxamide derivatives and uses thereof for treating proliferative diseases and infectious diseases” (Academia Sinica, priority 2016, dated 2024).
In brackets after ≈: the same amount, converted by molar mass. Read-outs that look alike come from different tables or passages of the source.

Key:
[1] = test system: Acinetobacter baumannii; test: MIC, broth micro dilution method; assay type: cell-based
[2] = test system: Lung Cancer Cells (H1975); test: Cell viability by Cell-TiterGlo; assay type: cell-based; conditions: Homo sapiens, NCI-H1975, 48 h, two days, read-out: % of the activities in the presence of ~10 μM compound, Lung Cancer Cells (H1975)
Protocol: (§1) Compound 1 and its analogues shown in Table 6 below were tested for their activities on cancer cells and bacterial cells using assays described herein. H1975, MDA-MB231, and MCF7 cells were incubated in the presence of the compounds in cell growth medium containing 10% fetal bovine serum for two days in a mammalian cell culture incubatoe. Cell viability were monitored by using Cell-TiterGlo. Staphylococcus aureus and Escherichia coli were incubated in the presence of the compounds in Muller-Hinton broth for 16-24 hours in a 37° C. incubator. Bacterial growth was monitored by using Alamar Blue (Invitrogen).

[3] = test system: Breast Cancer Cells (MCF); test: Cell viability by Cell-TiterGlo; assay type: cell-based; conditions: Homo sapiens, 48 h, two days, read-out: % of the activities in the presence of ~10 μM compound, Breast Cancer Cells (MCF)
Protocol: as §1

[4] = test system: Breast Cancer Cells (MDA-MB231); test: Cell viability by Cell-TiterGlo; assay type: cell-based; conditions: Homo sapiens, MDA-MB-231, 48 h, two days, read-out: % of the activities in the presence of ~10 μM compound, Breast Cancer Cells (MDA-MB231)
Protocol: as §1

[5] = test system: Staphylococcus aureus (MSSA, MRSA); test: Disc diffusion method, inhibition zones; assay type: cell-based; conditions: for zone of inhibition at 5 µg/disc: Staphylococcus aureus, 5 μg
[6] = test system: Staphylococcus aureus; test: MIC, broth micro dilution method; assay type: cell-based
[7] = test system: Staphylococcus epidermidis; test: MIC, broth micro dilution method; assay type: cell-based
[8] = test system: H1975 cells; test: Cell cycle analysis by propidium iodide flow cytometry; conditions: 72 h
[9] = test system: Enterococcus faecalis; test: MIC, broth micro dilution method; assay type: cell-based

`Cc1oc2c(c1C(=O)NCCCn1ccnc1)C(=O)c1ccccc1C2=O` [Compound 1, N-(3-(1H-Imidazol-1-yl)propyl)-2-methyl-4,9-dioxo-4,9-dihydronaphtho [2,3-b]furan-3-carboxamide] was tested, and the MIC ([1]; read-out: MIC (μg/ml) 100%, strain ATCC19606, gram negative) was over 32 µg/mL, the MIC ([1]; strain ATCC19606, gram negative, read-out: MIC (μg/ml) 50%) was over 32 µg/mL and the viability at 10 µM [2] was 4.2%. For the same molecule, the viability at 10 µM [3] was 6%, the viability at 10 µM [4] was 13.7% and the “antimicrobial activity against all the MRSA strains” value ([5]; 5 μg concentration, disc diffusion) was “showed antimicrobial activity”. The “antibacterial activity against MRSA as compared to ciprofloxacin” value ([5]; MRSA) was “stronger antibacterial activity”, the zone of inhibition at 5 µg/disc ([5]; disc diffusion, read-out: average diameter of the inhibition zone) was 25.5 mm and the zone of inhibition at 5 µg/disc ([5]; strain MRSA14979, read-out: Inhibition zone (mm)) was 25 mm. For the same molecule, the zone of inhibition at 5 µg/disc ([5]; strain MRSA15211, read-out: Inhibition zone (mm)) was 26 mm, the zone of inhibition at 5 µg/disc ([5]; strain NTUH-104-2, MRSA (SCCmec VT, ST45), read-out: Inhibition zone (mm)) was 24 mm and the zone of inhibition at 5 µg/disc ([5]; strain NTUH-2102, MRSA (SCCmec II, ST5, FA-S), read-out: Inhibition zone (mm)) was 26 mm. It also gave a zone of inhibition at 5 µg/disc ([5]; strain NTUH-4578, MRSA (SCCmec IV, ST59), read-out: Inhibition zone (mm)) of 27 mm, a zone of inhibition at 5 µg/disc ([5]; strain NTUH-9383, MRSA (SCCmec III, ST239, FA-R), read-out: Inhibition zone (mm)) of 29 mm and a zone of inhibition at 5 µg/disc ([5]; strain PM1, MRSA (SCCmec VT, ST59), read-out: Inhibition zone (mm)) of 25 mm. For the same molecule, the zone of inhibition at 5 µg/disc ([5]; strain SA10451, read-out: Inhibition zone (mm)) was 24 mm, the zone of inhibition at 5 µg/disc ([5]; strain SA10780, read-out: Inhibition zone (mm)) was 25 mm and the zone of inhibition at 5 µg/disc ([5]; strain SAI 1863, read-out: Inhibition zone (mm)) was 25 mm. It also gave a zone of inhibition at 5 µg/disc ([5]; ATCC 25923 / MRSA / MSSA, strain ATCC25923, MSSA, read-out: Inhibition zone (mm)) of 26 mm, an MIC ([6]; ATCC 2921 / MSSA, read-out: MIC (μg/ml) 100%, strain ATCC2921 3, MSSA) of 4 µg/mL (≈ 11 µM) and an MIC ([6]; ATCC 2921 / MSSA, strain ATCC2921 3, MSSA, read-out: MIC (μg/ml) 50%) of 1 µg/mL (≈ 2.75 µM). It also gave an MIC ([6]; ATCC 12598 / MSSA, read-out: MIC (μg/ml) 100%, strain ATCC12598, MSSA) of 4 µg/mL (≈ 11 µM), an MIC ([6]; ATCC 12598 / MSSA, strain ATCC12598, MSSA, read-out: MIC (μg/ml) 50%) of 0.5 µg/mL (≈ 1.38 µM) and an MIC ([6]; ATCC 25923 / MSSA, read-out: MIC (μg/ml) 100%, strain ATCC25923, MSSA) of 4 µg/mL (≈ 11 µM). The MIC ([6]; ATCC 25923 / MSSA, strain ATCC25923, MSSA, read-out: MIC (μg/ml) 50%) was 2 µg/mL (≈ 5.5 µM), the MIC ([6]; ATCC 33592 / MRSA, read-out: MIC (μg/ml) 100%, strain ATCC33592, MRSA (SCCmec III)) was 1 µg/mL (≈ 2.75 µM) and the MIC ([6]; ATCC 33592 / MRSA, strain ATCC33592, MRSA (SCCmec III), read-out: MIC (μg/ml) 50%) was 0.5 µg/mL (≈ 1.38 µM). For the same molecule, the MIC ([6]; ATCC 49476 / MRSA, read-out: MIC (μg/ml) 100%, strain ATCC49476, MRSA (SCCmec III)) was 1 µg/mL (≈ 2.75 µM), the MIC ([6]; ATCC 49476 / MRSA, strain ATCC49476, MRSA (SCCmec III), read-out: MIC (μg/ml) 50%) was 0.5 µg/mL (≈ 1.38 µM) and the MIC ([6]; MRSA, range over MRSA strains, broth micro dilution, read-out: MIC) was 1 to 4 µg/mL (≈ 2.75 to 11 µM). It also gave an MIC ([6]; MRSA, read-out: MIC (μg/ml) 100%, strain NTUH-1-2868, MRSA (SCCmec III, ST239, FA-R), clinical isolate) of 1 µg/mL (≈ 2.75 µM), an MIC ([6]; MRSA, read-out: MIC (μg/ml) 100%, strain NTUH-104-2, MRSA (SCCmec VT, ST45), clinical isolate) of 1 µg/mL (≈ 2.75 µM) and an MIC ([6]; MRSA, read-out: MIC (μg/ml) 100%, strain NTUH-406-2, MRSA (SCCmec IV, spa type t008), clinical isolate) of 4 µg/mL (≈ 11 µM). For the same molecule, the MIC ([6]; MRSA, read-out: MIC (μg/ml) 100%, strain NTUH-560, MRSA (SCCmec II, GM-S), clinical isolate) was 4 µg/mL (≈ 11 µM), the MIC ([6]; MRSA, read-out: MIC (μg/ml) 100%, strain NTUH-2102, MRSA (SCCmec II, ST5, FA-S), clinical isolate) was 4 µg/mL (≈ 11 µM) and the MIC ([6]; MRSA, read-out: MIC (μg/ml) 100%, strain NTUH-2417, MRSA (SCCmec III, SXT-S), clinical isolate) was 1 µg/mL (≈ 2.75 µM). The MIC ([6]; MRSA, read-out: MIC (μg/ml) 100%, strain NTUH-2643, MRSA (SCCmec IV, spa type to 15), clinical isolate) was 4 µg/mL (≈ 11 µM), the MIC ([6]; MRSA, read-out: MIC (μg/ml) 100%, strain NTUH-2967, MRSA (SCCmec VT, ST1), clinical isolate) was 4 µg/mL (≈ 11 µM) and the MIC ([6]; MRSA, read-out: MIC (μg/ml) 100%, strain NTUH-4400, MRSA (SCCmec II, ST5, FA-R), clinical isolate) was 2 µg/mL (≈ 5.5 µM). The MIC ([6]; MRSA, read-out: MIC (μg/ml) 100%, strain NTUH-4578, MRSA (SCCmec IV, ST59), clinical isolate) was 4 µg/mL (≈ 11 µM), the MIC ([6]; MRSA, read-out: MIC (μg/ml) 100%, strain NTUH-8038, MRSA (SCCmec IV, spa type t189), clinical isolate) was 4 µg/mL (≈ 11 µM) and the MIC ([6]; MRSA, read-out: MIC (μg/ml) 100%, strain NTUH-9383, MRSA (SCCmec III, ST239, FA-R), clinical isolate) was 1 µg/mL (≈ 2.75 µM). It also gave an MIC ([6]; MRSA, read-out: MIC (μg/ml) 100%, strain PM1, MRSA (SCCmec VT, ST59), clinical isolate) of 4 µg/mL (≈ 11 µM), an MIC ([6]; MRSA, read-out: MIC (μg/ml) 100%, strain TSHR17, MRSA (SCCmec VT)) of 4 µg/mL (≈ 11 µM) and an MIC ([6]; MRSA, strain NTUH-1-2868, MRSA (SCCmec III, ST239, FA-R), clinical isolate, read-out: MIC (μg/ml) 50%) of 0.5 µg/mL (≈ 1.38 µM). For the same molecule, the MIC ([6]; MRSA, strain NTUH-104-2, MRSA (SCCmec VT, ST45), clinical isolate, read-out: MIC (μg/ml) 50%) was 0.5 µg/mL (≈ 1.38 µM), the MIC ([6]; MRSA, strain NTUH-406-2, MRSA (SCCmec IV, spa type t008), clinical isolate, read-out: MIC (μg/ml) 50%) was 0.5 µg/mL (≈ 1.38 µM) and the MIC ([6]; MRSA, strain NTUH-560, MRSA (SCCmec II, GM-S), clinical isolate, read-out: MIC (μg/ml) 50%) was 1 µg/mL (≈ 2.75 µM). It also gave an MIC ([6]; MRSA, strain NTUH-2102, MRSA (SCCmec II, ST5, FA-S), clinical isolate, read-out: MIC (μg/ml) 50%) of 1 µg/mL (≈ 2.75 µM), an MIC ([6]; MRSA, strain NTUH-2417, MRSA (SCCmec III, SXT-S), clinical isolate, read-out: MIC (μg/ml) 50%) of 0.5 µg/mL (≈ 1.38 µM) and an MIC ([6]; MRSA, strain NTUH-2643, MRSA (SCCmec IV, spa type to 15), clinical isolate, read-out: MIC (μg/ml) 50%) of 1 µg/mL (≈ 2.75 µM). The MIC ([6]; MRSA, strain NTUH-2967, MRSA (SCCmec VT, ST1), clinical isolate, read-out: MIC (μg/ml) 50%) was 1 µg/mL (≈ 2.75 µM), the MIC ([6]; MRSA, strain NTUH-4400, MRSA (SCCmec II, ST5, FA-R), clinical isolate, read-out: MIC (μg/ml) 50%) was 1 µg/mL (≈ 2.75 µM) and the MIC ([6]; MRSA, strain NTUH-4578, MRSA (SCCmec IV, ST59), clinical isolate, read-out: MIC (μg/ml) 50%) was 1 µg/mL (≈ 2.75 µM). For the same molecule, the MIC ([6]; MRSA, strain NTUH-8038, MRSA (SCCmec IV, spa type t189), clinical isolate, read-out: MIC (μg/ml) 50%) was 1 µg/mL (≈ 2.75 µM), the MIC ([6]; MRSA, strain NTUH-9383, MRSA (SCCmec III, ST239, FA-R), clinical isolate, read-out: MIC (μg/ml) 50%) was 0.5 µg/mL (≈ 1.38 µM) and the MIC ([6]; MRSA, strain PM1, MRSA (SCCmec VT, ST59), clinical isolate, read-out: MIC (μg/ml) 50%) was 1 µg/mL (≈ 2.75 µM). It also gave an MIC ([6]; MRSA, strain TSHR17, MRSA (SCCmec VT), read-out: MIC (μg/ml) 50%) of 0.5 µg/mL (≈ 1.38 µM), an MIC ([7]; read-out: MIC (μg/ml) 100%, strain ATCC12228, methicillin-susceptible) of 2 µg/mL (≈ 5.5 µM) and an MIC ([7]; read-out: MIC (μg/ml) 100%, strain ATCC35984, methicillin-resistant) of 1 µg/mL (≈ 2.75 µM). For the same molecule, the MIC ([7]; strain ATCC12228, methicillin-susceptible, read-out: MIC (μg/ml) 50%) was 0.5 µg/mL (≈ 1.38 µM), the MIC ([7]; strain ATCC35984, methicillin-resistant, read-out: MIC (μg/ml) 50%) was 0.25 µg/mL (≈ 0.688 µM) and the “Phase(%) G1” value ([8]; H1975, 35 nM) was 70%. For the same molecule, the “Phase(%) G2/M” value ([8]; H1975, 35 nM) was 23%, the “Phase(%) S” value ([8]; H1975, 35 nM) was 4% and the “Phase(%) subG1” value ([8]; H1975, 35 nM) was 1%. For the same molecule, the “Phase(%) G1” value ([8]; H1975, 70 nM) was 58%, the “Phase(%) G2/M” value ([8]; H1975, 70 nM) was 31% and the “Phase(%) S” value ([8]; H1975, 70 nM) was 7%. The “Phase(%) subG1” value ([8]; H1975, 70 nM) was 1%, the “Phase(%) G1” value ([8]; H1975, 140 nM) was 39% and the “Phase(%) G2/M” value ([8]; H1975, 140 nM) was 38%. The “Phase(%) S” value ([8]; H1975, 140 nM) was 18%, the “Phase(%) subG1” value ([8]; H1975, 140 nM) was 4% and the MIC ([9]; read-out: MIC (μg/ml) 100%, strain ATCC19433) was 32 µg/mL (≈ 88.1 µM). It also gave an MIC ([9]; strain ATCC19433, read-out: MIC (μg/ml) 50%) of 16 µg/mL (≈ 44 µM).
